Molecular target: T1, TwKO (Tripterygium wilfordii, UniProt A0A2S0H3R9)
T1 construct: full-length ORF co-expressed from pESC-Leu with a TwCPR (all four tested, TwCPR3 best) in Saccharomyces cerevisiae BY-T20; with NADPH--cytochrome P450 reductase 3
Assay: GC-MS of methylated yeast culture extracts
Type: cell-based
Details: co-expressed TwCPR; substrate made in vivo by TwCPS3/TwKSL2:A608M; product ent-kaurenoic acid; 30 °C

T1 sequence (A0A2S0H3R9 1-509): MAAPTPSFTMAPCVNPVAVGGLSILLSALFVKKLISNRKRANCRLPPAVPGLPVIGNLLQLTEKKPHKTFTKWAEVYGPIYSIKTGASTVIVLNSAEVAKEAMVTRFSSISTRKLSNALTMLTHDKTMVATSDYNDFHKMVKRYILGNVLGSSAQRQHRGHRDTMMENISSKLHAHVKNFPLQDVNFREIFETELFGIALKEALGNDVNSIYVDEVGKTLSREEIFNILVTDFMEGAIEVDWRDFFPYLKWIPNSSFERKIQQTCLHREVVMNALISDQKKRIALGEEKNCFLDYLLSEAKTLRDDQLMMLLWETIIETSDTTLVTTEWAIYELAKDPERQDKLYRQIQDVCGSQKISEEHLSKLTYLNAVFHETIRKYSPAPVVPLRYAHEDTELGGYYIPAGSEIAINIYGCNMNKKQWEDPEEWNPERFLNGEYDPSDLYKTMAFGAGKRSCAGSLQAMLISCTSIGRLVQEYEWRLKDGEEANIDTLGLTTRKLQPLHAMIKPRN
T1 sequence (A0A808MGE5 1-690 partner): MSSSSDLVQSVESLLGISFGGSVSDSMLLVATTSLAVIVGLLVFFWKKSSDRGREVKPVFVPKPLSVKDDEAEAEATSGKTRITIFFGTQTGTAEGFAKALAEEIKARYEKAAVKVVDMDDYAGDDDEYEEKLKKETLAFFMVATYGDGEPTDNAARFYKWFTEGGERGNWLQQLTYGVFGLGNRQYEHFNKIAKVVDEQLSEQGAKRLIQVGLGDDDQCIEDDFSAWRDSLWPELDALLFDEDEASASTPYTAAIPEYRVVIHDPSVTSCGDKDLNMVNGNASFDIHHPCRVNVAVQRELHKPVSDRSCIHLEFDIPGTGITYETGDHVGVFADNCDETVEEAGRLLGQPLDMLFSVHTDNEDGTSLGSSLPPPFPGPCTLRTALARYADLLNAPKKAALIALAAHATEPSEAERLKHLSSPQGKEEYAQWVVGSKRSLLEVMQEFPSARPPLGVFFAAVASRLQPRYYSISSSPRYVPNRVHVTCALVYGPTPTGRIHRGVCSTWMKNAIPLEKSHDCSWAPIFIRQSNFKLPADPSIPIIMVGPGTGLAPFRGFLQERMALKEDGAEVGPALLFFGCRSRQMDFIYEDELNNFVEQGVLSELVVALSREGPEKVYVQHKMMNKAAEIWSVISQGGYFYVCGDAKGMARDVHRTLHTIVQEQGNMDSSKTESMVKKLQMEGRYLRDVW

C=C1C[C@@]23CC[C@@H]4C(C)(C)CCC[C@@]4(C)[C@@H]2CC[C@@H]1C3 [ent-kaurene]
GC-MS of methylated yeast culture extracts: three-stage oxidation of ent-kaurene to ent-kaurenoic acid

— PMC5645531, “Probing the Single Key Amino Acid Responsible for the Novel Catalytic Function of ent-Kaurene Oxidase Supported by NADPH-Cytochrome P450 Reductases in Tripterygium wilfordii” (Frontiers in Plant Science, 2017)
